Laboratory results published in patent US5382525A, “Method of effecting increased performance of diagnostic enzyme reaction systems using noble gases” (American Air Liquide, priority 1992, dated 1995).

Assays:
[1] = system: Alkaline Phosphatase (EC 3.1.3.1); assay: Alkaline Phosphatase [ALP/AP] Sigma Kit No. 245-10 gas run; type: biochemical, Chicken; set-up: Rate Difference / Yield Difference: unit not given here; conditions: for rate of the alkaline phosphatase-catalyzed reaction (FIGS. 1-3): 10°, 25° and 35° C., saturation with the gas; for Yield Difference / Rate Difference: relative to air
Description: Alkaline Phosphatase [ALP/AP] Sigma Kit. No. 245-10 Gas Run Protocol
Phosphatase, Alkaline P-8008
(Orthophosphoric-monoester phosphohydrolase [alkaline optimum]; EC 3.1.3.1)
From Chicken Intestine 5.1 Units/mg solid (1 g solid) Lot# 115F-3806
SIGMA Diagnostic Kit 245-10 (Procedure No. 245)
PRINCIPLE [drawing 1] The hydrolysis occurs at alkaline pH. The formation of p-nitrophenol can be observed as an increase in absorbance at 405 nm. The rate of increase directly proportional at ALP activity. […]
(§1) The following consists of example results obtained from gas runs. Negative numbers indicate an inhibition of the enzyme activity. Positive numbers indicate an enhancement of the enzyme activity

[2] = system: Acid Phosphatase (EC 3.1.3.2); assay: Acid Phosphatase Sigma Kit No. 435-A gas run; type: biochemical, Potato; conditions: for rate of the acid phosphatase-catalyzed reaction (FIG. 4): 10° C., saturation with the gas; for % Rate Difference / % Yield Difference: relative to air
Description: Acid Phosphatase Sigma Kit. No. 435-A Gas Run Protocol
(Orthophosphoric-monoester phosphohydrolase [acid optimum)]; EC 3.1.3.2)
From Potato 0.8 Units/mg solid (1 g solid) Lot# 17F-7285
SIGMA Diagnostic Kit 435-A (Procedure No. 435)
PRINCIPLE [drawing 3] Acid phosphatase [ACP] catalyzes the hydrolysis of α-Naphthyl phosphate to a-Naphthol and inorganic phosphate. α-Naphthol immediately reacts with fast red TR salt to produce a yellow chromophore with an absorbance maximum at 405 nm. The rate of increase in absorbance at 405 nm is directly proportional to ACP activity. […]
as §1

Urease EC 3.5.1.5 = target: T1, Urease EC 3.5.1.5 (Canavalia ensiformis, UniProt P07374); assay: Urea Nitrogen Diagnostic Kit (640) stop-flow gas run; type: biochemical, jack beans; conditions: 37° C.; relative to air
T1 construct: purchased Sigma 640-5; host or cells: jack beans
T1 sequence (P07374 whole entry, looked up): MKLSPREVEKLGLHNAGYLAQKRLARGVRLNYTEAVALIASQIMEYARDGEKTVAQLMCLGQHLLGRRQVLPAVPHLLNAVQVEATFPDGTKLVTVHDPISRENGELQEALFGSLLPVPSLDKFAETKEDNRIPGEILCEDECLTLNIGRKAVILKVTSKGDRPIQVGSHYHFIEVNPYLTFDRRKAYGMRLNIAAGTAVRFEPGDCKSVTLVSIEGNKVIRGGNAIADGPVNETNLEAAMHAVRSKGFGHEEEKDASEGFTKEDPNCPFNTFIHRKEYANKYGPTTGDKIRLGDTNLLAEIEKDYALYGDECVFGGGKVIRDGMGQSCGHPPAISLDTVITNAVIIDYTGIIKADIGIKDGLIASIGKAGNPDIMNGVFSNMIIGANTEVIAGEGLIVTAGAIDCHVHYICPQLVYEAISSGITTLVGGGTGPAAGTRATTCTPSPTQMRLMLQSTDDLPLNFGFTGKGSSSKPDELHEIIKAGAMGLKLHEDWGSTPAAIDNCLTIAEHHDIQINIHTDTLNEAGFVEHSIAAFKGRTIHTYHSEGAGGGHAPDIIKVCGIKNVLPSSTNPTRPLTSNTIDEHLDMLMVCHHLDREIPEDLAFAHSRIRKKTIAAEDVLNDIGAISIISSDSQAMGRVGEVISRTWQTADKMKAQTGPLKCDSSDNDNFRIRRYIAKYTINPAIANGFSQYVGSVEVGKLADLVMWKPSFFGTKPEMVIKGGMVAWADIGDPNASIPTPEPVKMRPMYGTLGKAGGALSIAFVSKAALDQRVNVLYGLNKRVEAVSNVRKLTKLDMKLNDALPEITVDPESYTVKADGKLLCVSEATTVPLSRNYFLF
Description: Urea Nitrogen Diagnostic Kit (640) Protocol For Gas Run
Urea Nitrogen (Sigma Diagnostic Kit, Procedure No. 640)
Sigma No. 640-5 Buffered Urease from jack beans 100 units when prepared according to directions (3.33 units/ml). Sodium azide added as preservative. Store in refrigerator. Note expiration date: JUNE 1993
PRINCIPLE: Urea is hydrolyzed by urease to ammonia and carbon dioxide. [drawing 6] Ammonia then reacts with alkaline hypochlorite and phenol in the presence of a catalyst, sodium nitroprusside [Na2 Fe[CN]5 NO.2H2 O], to form indophenol. The concentration of ammonia is directly proportional to the absorbance of indophenol, which is measured spectrophotometrically at 570 nm. [drawing 7] Note: Ammonia free water (DI H2 O should be ok) is necessary for this procedure, Make sure to rinse everything with DI H2 O before use, If the blank has more than a trace of blue color ammonia contamination should be suspected.
PROCEDURE FOR STOP-FLOW GAS EXPERIMENT
In a 100 cc serum vial place 20 ml Urease soln (Soln A1). Stopper, seal and crimp. Bubble 400 ml of gas through (using the 500 ml gas-tight syringe). Superimpose 100 ml of gas, vial will be under positive pressure.
Sample 0.4 ml Urea Nitrogen Standard Solution 1 from gassed 3 cc vial. Add to the gassed 100 cc serum vial (containing 20 ml Soln A1). Start stop watch, gently swirl vial.
Take 0.5 ml samples every minute. Place the 0.5 ml sample into the corresponding 10 cc vial to stop the reaction. Inject immediately 1 ml Alkaline Hypochlorite Solution followed by 5 ml D.I. H2 O.
Let the 15×10 cc vials sit and develop color for 30 minutes. a 1 wavelength "scan" (see software) should be run: 3 ml per cuvette. Read vs a blank of 3 ml Soln B.
Spectrophotometric study procedure: 37° C.
as §1

[3] = target: T2, Alcohol dehydrogenase EC 1.1.1.1 (Saccharomyces cerevisiae, UniProt P00330); assay: Alcohol [Ethanol] Diagnostic Kit Sigma No. 332-UV gas run; type: biochemical, yeast; conditions: relative to air
T2 construct: purchased Sigma 330-1; host or cells: yeast
T2 sequence (P00330 1-348): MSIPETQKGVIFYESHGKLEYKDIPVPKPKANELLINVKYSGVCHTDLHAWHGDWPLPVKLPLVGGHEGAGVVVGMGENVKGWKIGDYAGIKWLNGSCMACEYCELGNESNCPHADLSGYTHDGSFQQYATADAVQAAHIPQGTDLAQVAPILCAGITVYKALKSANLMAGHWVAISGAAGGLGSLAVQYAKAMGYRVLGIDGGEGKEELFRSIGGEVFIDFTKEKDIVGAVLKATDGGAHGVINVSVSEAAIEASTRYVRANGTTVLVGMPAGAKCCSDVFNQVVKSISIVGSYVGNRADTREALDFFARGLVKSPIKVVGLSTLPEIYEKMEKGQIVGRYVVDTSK
Description: Alcohol [Ethanol] Diagnostic Kit Sigma Diagnostic Kit No. 332-UV Gas Run Protocol
SIGMA Diagnostic Kit 332-BT (Procedure No. 332-UV)
The NAD-ADH vials, when reconstituted according to the directions, contain approximately the following concentrations of active ingredients: NAD, 0.6 μmol/ml, alcohol dehydrogenase [yeast], 50 U/ml, and stabilizers. […]
Step 1: Prepare diluted Ethanol Standard Solution by mixing 4.0 ml Glycine Buffer Reagent (332-9) with 0.5 ml Ethanol Standard Solution (330-20). Cap until ready for use. 4 substrate concentrations: […]
Inject 1×3 cc of gas in silicone-sealed cuvettes No 2nd and 3rd 3 cc gas injection: NAD-ADH solution squirts back in the syringes because of foam formation due to bubbling. Store cuvettes overnight in refrigerator (0°-5° C.) under two 3 cc syringes, in the dark. […]
Remove the G1 cuvettes out from the fridge. Bubble 2×3 cc of gas. Place cuvettes (under two 3 cc syringes filled up with the appropriate gas) in cell holder.
Sample diluted Ethanol Standard Solution with 1 cc syringes, pick syringes into silicone, push plungers simultaneously, run timedrives.
as §1

particulate sialidase = conditions: Sandhoff et al 1976; called questionable, highly impure enzymes; cited from earlier work
[4] = independent of oxygen partial pressure; Schreiner; cited from earlier work
[5] = 10 °C, positive = enhancement, negative = inhibition of enzyme activity

[Ar] [Ar, argon]
rate of the alkaline phosphatase-catalyzed reaction (FIGS. 1-3) [1]: improvement of the rate
Yield Difference ([1]; 10 °C): 33.3
Rate Difference [1, 5]: 33.3
Rate Difference ([1]; 25 °C): 3.0
Yield Difference ([1]; 25 °C): 3.0
Rate Difference ([1]; 35 °C): 30.4
Yield Difference ([1]; 35 °C): 30.4
rate of the acid phosphatase-catalyzed reaction (FIG. 4) [2]: improvement of the rate
% Rate Difference ([2]; 10 °C): 8.4%
% Yield Difference ([2]; 10 °C): 9.4%
% Rate Difference ([2]; 25 °C): 12.2%
% Yield Difference ([2]; 25 °C): 9.2%
% Rate Difference ([2]; 35 °C): -1.4%
% Yield Difference ([2]; 35 °C): -0.42%
% Rate Difference (Urease EC 3.5.1.5): 9.4%
% Yield Difference (Urease EC 3.5.1.5): 9.4%
% Rate Difference ([3]; 0.08% Ethanol, 10° C.): 8.8%
% Rate Difference ([3]; 0.24% Ethanol, 10° C.): 9.0%
% Yield Difference ([3]; 0.24% Ethanol, 10° C.): 8.3%
% Rate Difference ([3]; 0.24% Ethanol, 25° C.): -9.4%
% Yield Difference ([3]; 0.24% Ethanol, 25° C.): -6.6%
% Rate Difference ([3]; 0.32% Ethanol, 10° C.): 5.2%
% Yield Difference ([3]; 0.32% Ethanol, 10° C.): 2.3%

[Kr] [Kr, krypton]
rate of the alkaline phosphatase-catalyzed reaction (FIGS. 1-3) [1]: improvement of the rate
Yield Difference ([1]; 10 °C): 1.7
Rate Difference [1, 5]: 1.7
Rate Difference ([1]; 25 °C): 9.1
Yield Difference ([1]; 25 °C): 9.1
Rate Difference ([1]; 35 °C): 4.3
Yield Difference ([1]; 35 °C): 4.3
rate of the acid phosphatase-catalyzed reaction (FIG. 4) [2]: improvement of the rate
% Rate Difference ([2]; 10 °C): 18.1%
% Yield Difference ([2]; 10 °C): 16.0%
% Rate Difference ([2]; 25 °C): 13.3%
% Yield Difference ([2]; 25 °C): 7.3%
% Rate Difference ([2]; 35 °C): 1.4%
% Yield Difference ([2]; 35 °C): 1.3%
% Rate Difference (Urease EC 3.5.1.5): 0.0%
% Yield Difference (Urease EC 3.5.1.5): 0.0%
% Rate Difference ([3]; 0.08% Ethanol, 10° C.): 2.9%
% Rate Difference ([3]; 0.24% Ethanol, 10° C.): 11.9%
% Yield Difference ([3]; 0.24% Ethanol, 10° C.): 14.2%
% Rate Difference ([3]; 0.24% Ethanol, 25° C.): -9.4%
% Yield Difference ([3]; 0.24% Ethanol, 25° C.): -4.4%
% Rate Difference ([3]; 0.32% Ethanol, 10° C.): 8.6%
% Yield Difference ([3]; 0.32% Ethanol, 10° C.): 4.7%

N#N [N2, Nitrogen, reference compound]
Yield Difference ([1]; 10 °C): 0
Rate Difference [1, 5]: 0
Rate Difference ([1]; 25 °C): 0
Yield Difference ([1]; 25 °C): 0
Rate Difference ([1]; 35 °C): 0
Yield Difference ([1]; 35 °C): 0
% Rate Difference (Urease EC 3.5.1.5): 0.0%

[Ne] [Ne, neon]
% Rate Difference (Urease EC 3.5.1.5): 3.1%
% Yield Difference (Urease EC 3.5.1.5): 3.1%
% Rate Difference ([3]; 0.32% Ethanol, 10° C.): 12.1%
% Yield Difference ([3]; 0.32% Ethanol, 10° C.): 3.9%

[Xe] [Xe, xenon]
rate of the alkaline phosphatase-catalyzed reaction (FIGS. 1-3) [1]: improvement of the rate
Yield Difference ([1]; 10 °C): 16.7
Rate Difference [1, 5]: 16.7
Rate Difference ([1]; 25 °C): 18.2
Yield Difference ([1]; 25 °C): 18.2
Rate Difference ([1]; 35 °C): 7.3
Yield Difference ([1]; 35 °C): 7.3
rate of the acid phosphatase-catalyzed reaction (FIG. 4) [2]: improvement of the rate
% Rate Difference ([2]; 10 °C): 42.2%
% Yield Difference ([2]; 10 °C): 39.2%
% Rate Difference ([2]; 25 °C): 21.1%
% Yield Difference ([2]; 25 °C): 14.7%
% Rate Difference ([2]; 35 °C): 5.6%
% Yield Difference ([2]; 35 °C): 4.2%
% Rate Difference (Urease EC 3.5.1.5): 9.4%
% Yield Difference (Urease EC 3.5.1.5): 9.4%
% Rate Difference ([3]; 0.24% Ethanol, 10° C.): 7.5%
% Yield Difference ([3]; 0.24% Ethanol, 10° C.): 10.0%
% Rate Difference ([3]; 0.24% Ethanol, 25° C.): -10.4%
% Yield Difference ([3]; 0.24% Ethanol, 25° C.): -8.0%
% Rate Difference ([3]; 0.32% Ethanol, 10° C.): 15.6%
% Yield Difference ([3]; 0.32% Ethanol, 10° C.): 10.2%
effect on activity of particulate sialidase (particulate sialidase): enhance the activity

FC(F)(F)C(Cl)Br (centres unmarked) [halothane]
effect on activity of particulate sialidase (particulate sialidase): enhance the activity

[N-]=[N+]=O [nitrous oxide]
inhibition per atmosphere of added gas [4]: 1.9 % inhibition per atmosphere
effect on activity of particulate sialidase (particulate sialidase): enhance the activity
